Assay results published in patent publication US20200131669A1, “CYCLIC PEPTIDE COMPOUND HAVING HIGH MEMBRANE PERMEABILITY, AND LIBRARY CONTAINING SAME” (Chugai Seiyaku Kabushiki Kaisha, priority 2017, published 2020).
Positions of bridges follow the written chain, without caps; N, C: chain ends. Non-standard residues stand in square brackets, D forms with d. Residues, ends and D or L forms follow the SMILES beside them. ξ: configuration not given here. *: point of attachment. NMePhe(3-Cl) = CN[C@@H](Cc1cccc(Cl)c1)C(=O)O; NMePhe(4-Cl) = CN[C@@H](Cc1ccc(Cl)cc1)C(=O)O; NMehPhe = CN[C@@H](CCc1ccccc1)C(=O)O; hhPhe = N[C@@H](CCCc1ccccc1)C(=O)O; NMeF = CN[C@@H](Cc1ccccc1)C(=O)O; NMeI = CC[C@H](C)[C@H](NC)C(=O)O; hPhe = N[C@@H](CCc1ccccc1)C(=O)O; 4Pal = N[C@@H](Cc1ccncc1)C(=O)O; NMeL = CN[C@@H](CC(C)C)C(=O)O; ξNMeF = CNC(Cc1ccccc1)C(=O)O; NMeV = CN[C@H](C(=O)O)C(C)C; NMeA = CN[C@@H](C)C(=O)O; Piperidide = C1CCN(*)CC1; NPrGly = CCCNCC(=O)O; X2 = Fc1cncc(C*)c1; Sar = CNCC(=O)O; tBu = CC(C)(C)*

assay: Caco-2 membrane permeability, improved method as used in the following Examples (96-well, 20 to 24 h preincubation); format: in vitro ADME; conditions: human, Caco-2, Caco-2 (cm/sec)
Summary of the method: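 Papp (cm/sec) was derived from LC/MS of basal samples collected 180 min after apical dosing in FaSSIF/HBSS pH 6.0 with 1% DMSO, against a basal HBSS pH 7.4 receiver containing 4% BSA. Three-week Caco-2 cultures were first preincubated with compound in DMEM+FaSSIF at 37 °C for 20–24 h.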

Compound	Papp A→B at 180 min [×10⁻⁶ cm/s]
CC(C)C[C@@H]1NC(=O)[C@H](CC(C)C)N(C)C(=O)[C@H](C)N(C)C(=O)[C@H]([C@@H](C)O)NC(=O)[C@H](CC(C)C)N(C)C(=O)[C@H](COC(C)(C)C)NC(=O)[C@H](Cc2cccc(Cl)c2)N(C)C(=O)[C@H](CC(C)C)NC(=O)[C@H](C(C)C)N(C)C(=O)[C@@H](C(C)C)NC(=O)C[C@@H](C(=O)N2CCCCC2)NC1=O [pd171] ([dV][NMeV]L[NMePhe(3-Cl)]S(tBu)[NMeL]T[NMeA][NMeL]LD-Piperidide; lactam N-11)	1.2
CC(C)C[C@@H]1NC(=O)[C@H](CC(C)C)N(C)C(=O)[C@@H](CC(C)C)NC(=O)C[C@@H](C(=O)N2CCCCC2)NC(=O)[C@H](CC(C)C)N(C)C(=O)[C@H](Cc2cccc(Cl)c2)N(C)C(=O)[C@H](Cc2ccncc2)NC(=O)[C@H](CC(C)C)N(C)C(=O)CN(C)C(=O)[C@H]([C@@H](C)O)NC(=O)[C@H](CC(C)C)N(C)C1=O [pd172] ([dL][NMeL]L[NMeL]T[Sar][NMeL][4Pal][NMePhe(3-Cl)][NMeL]D-Piperidide; lactam N-11)	1.1
CC(C)C[C@@H]1NC(=O)[C@H](C)N(C)C(=O)C[C@@H](C(=O)N2CCCCC2)NC(=O)[C@H](CC(C)C)N(C)C(=O)CN(C)C(=O)[C@H]([C@@H](C)O)NC(=O)[C@H](CC(C)C)N(C)C(=O)[C@H](Cc2ccc(Cl)cc2)N(C)C(=O)[C@H](C)NC(=O)[C@H](Cc2ccccc2)N(C)C(=O)[C@H](CC(C)C)N(C)C1=O [pd173] ([NMeA]L[NMeL][NMeF]A[NMePhe(4-Cl)][NMeL]T[Sar][NMeL]D-Piperidide; lactam N-11)	1.6
CC[C@H](C)[C@@H]1NC(=O)[C@H](Cc2ccccc2)N(C)C(=O)CN(C)C(=O)C[C@@H](C(=O)N2CCCCC2)NC(=O)[C@H](C(C)C)N(C)C(=O)[C@H](COC(C)(C)C)NC(=O)[C@H](CC(C)C)N(C)C(=O)[C@H](Cc2ccc(Cl)cc2)N(C)C(=O)CN(C)C(=O)[C@H]([C@@H](C)O)NC(=O)[C@H](CC(C)C)N(C)C1=O [pd175] ([Sar][NMeF]I[NMeL]T[Sar][NMePhe(4-Cl)][NMeL]S(tBu)[NMeV]D-Piperidide; lactam N-11)	1.1
CC[C@H](C)[C@@H]1NC(=O)[C@H](Cc2ccc(Cl)cc2)N(C)C(=O)CN(C)C(=O)C[C@@H](C(=O)N2CCCCC2)NC(=O)[C@H](C(C)C)N(C)C(=O)[C@H](COC(C)(C)C)NC(=O)[C@H](CC(C)C)N(C)C(=O)[C@H](Cc2ccccc2)N(C)C(=O)CN(C)C(=O)[C@H]([C@@H](C)O)NC(=O)[C@H](CC(C)C)N(C)C1=O [pd176] ([Sar][NMePhe(4-Cl)]I[NMeL]T[Sar][NMeF][NMeL]S(tBu)[NMeV]D-Piperidide; lactam N-11)	1.2
CC(C)C[C@H]1C(=O)N[C@@H](COC(C)(C)C)C(=O)N(C)[C@@H](Cc2ccccc2)C(=O)N(C)[C@@H](C(C)C)C(=O)N[C@H](C(=O)N2CCCCC2)CC(=O)N[C@H](C(C)C)C(=O)N(C)C(Cc2ccccc2)C(=O)N[C@@H](COCc2cncc(F)c2)C(=O)N(C)[C@@H](CC(C)C)C(=O)N[C@@H]([C@@H](C)O)C(=O)N(C)CC(=O)N1C (stereo partly drawn) [pd180] ([dV][ξNMeF]S(X2)[NMeL]T[Sar][NMeL]S(tBu)[NMeF][NMeV]D-Piperidide; lactam N-11)	2.4
CC[C@H](C)[C@H]1C(=O)N[C@@H]([C@@H](C)O)C(=O)N(C)CC(=O)N(C)[C@@H](CC(C)C)C(=O)N[C@H](C(=O)N2CCCCC2)CC(=O)N(C)[C@@H](C(C)C)C(=O)N[C@@H](COCc2cncc(F)c2)C(=O)N(C)[C@@H](CC(C)C)C(=O)N(C)[C@@H](Cc2ccccc2)C(=O)N[C@@H](CC(C)C)C(=O)N(C)[C@@H](Cc2ccccc2)C(=O)N1C [pd181] ([NMeV]S(X2)[NMeL][NMeF]L[NMeF][NMeI]T[Sar][NMeL]D-Piperidide; lactam N-11)	1.1
CC(C)C[C@H]1C(=O)N(C)[C@@H](Cc2ccccc2)C(=O)N[C@@H](COC(C)(C)C)C(=O)N(C)[C@@H](C)C(=O)N[C@H](C(=O)N2CCCCC2)CC(=O)N(C)[C@@H](C)C(=O)N(C)[C@@H](Cc2ccccc2)C(=O)N[C@@H](CCc2ccccc2)C(=O)N(C)[C@@H](CC(C)C)C(=O)N[C@@H]([C@@H](C)O)C(=O)N(C)CC(=O)N1C [pd183] ([NMeA][NMeF][hPhe][NMeL]T[Sar][NMeL][NMeF]S(tBu)[NMeA]D-Piperidide; lactam N-11)	2.1
CC(C)C[C@H]1C(=O)N(C)[C@@H](CCc2ccccc2)C(=O)N[C@@H](COC(C)(C)C)C(=O)N(C)[C@@H](C)C(=O)N[C@H](C(=O)N2CCCCC2)CC(=O)N(C)[C@@H](C)C(=O)N(C)[C@@H](Cc2ccccc2)C(=O)N[C@@H](CCc2ccccc2)C(=O)N(C)[C@@H](CC(C)C)C(=O)N[C@@H]([C@@H](C)O)C(=O)N(C)CC(=O)N1C [pd184] ([NMeA][NMeF][hPhe][NMeL]T[Sar][NMeL][NMehPhe]S(tBu)[NMeA]D-Piperidide; lactam N-11)	1.2
CC(C)C[C@H]1C(=O)N[C@@H](COC(C)(C)C)C(=O)N(C)[C@@H](Cc2ccccc2)C(=O)N(C)[C@@H](C)C(=O)N[C@H](C(=O)N2CCCCC2)CC(=O)N[C@H](C(C)C)C(=O)N(C)[C@@H](Cc2ccccc2)C(=O)N[C@@H](CCCc2ccccc2)C(=O)N(C)[C@@H](CC(C)C)C(=O)N[C@@H]([C@@H](C)O)C(=O)N(C)CC(=O)N1C [pd192] ([dV][NMeF][hhPhe][NMeL]T[Sar][NMeL]S(tBu)[NMeF][NMeA]D-Piperidide; lactam N-11)	1.1
CC(C)C[C@H]1C(=O)N[C@@H](CCCc2ccccc2)C(=O)N(C)[C@@H](Cc2ccccc2)C(=O)N(C)[C@@H](C(C)C)C(=O)N[C@H](C(=O)N2CCCCC2)CC(=O)N[C@H](C)C(=O)N(C)C(Cc2ccccc2)C(=O)N[C@@H](C(C)C)C(=O)N(C)[C@@H](CC(C)C)C(=O)N[C@@H]([C@@H](C)O)C(=O)N(C)CC(=O)N1C (stereo partly drawn) [pd193] ([dA][ξNMeF]V[NMeL]T[Sar][NMeL][hhPhe][NMeF][NMeV]D-Piperidide; lactam N-11)	1
CCCN1CC(=O)N(C)[C@@H](CC(C)C)C(=O)N[C@@H](COC(C)(C)C)C(=O)N(C)[C@@H](Cc2ccccc2)C(=O)N(C)[C@@H](Cc2ccccc2)C(=O)N[C@H](C(=O)N2CCCCC2)CC(=O)N[C@H](C)C(=O)N(C)[C@@H](Cc2ccccc2)C(=O)N[C@@H](C(C)C)C(=O)N(C)[C@@H](CC(C)C)C(=O)N[C@@H]([C@@H](C)O)C1=O [pd194] ([dA][NMeF]V[NMeL]T[NPrGly][NMeL]S(tBu)[NMeF][NMeF]D-Piperidide; lactam N-11)	5.3

same assay, conditions: human, Caco-2, improved method, preincubation 20 to 24 hours; Papp, sample at 180 minutes; read-out: Caco-2

Compound	Papp A→B at 180 min [×10⁻⁶ cm/s]
CC(C)C[C@@H]1NC(=O)[C@H](Cc2ccc(Cl)cc2)N(C)C(=O)[C@H](CC(C)C)N(C)C(=O)[C@H](C(C)C)NC(=O)[C@H](C)N(C)C(=O)C[C@@H](C(=O)N2CCCCC2)NC(=O)[C@H](CC(C)C)N(C)C(=O)CN(C)C(=O)[C@H]([C@@H](C)O)NC(=O)[C@H](CC(C)C)N(C)C(=O)[C@H](Cc2ccccc2)N(C)C1=O [pd174] ([NMeA]V[NMeL][NMePhe(4-Cl)]L[NMeF][NMeL]T[Sar][NMeL]D-Piperidide; lactam N-11)	1.3
